Patent US12263172B2, “Toll-like receptor agonists for use in the treatment of hepatitis b” (priority 2019, dated 2025)
Values joined by “and” are separate entries in the source; they are usually repeats but may differ in a detail not shown here. Equal values may be shown once. “Also recorded” adds a separate entry of the source. Read-outs that look alike come from different tables or passages of the source.

Tests used:
[1] = Phase 1 single oral dose pharmacokinetics in healthy adults; type: in vivo; conditions: for AUC(0-t): read-out: AUC24 h
Procedure: This ongoing trial is a Phase 1 randomized, double-blind, placebo-controlled study in male and female healthy adult volunteers aged 18-55 years. All volunteers provided written, informed consent. For the SAD phase, 8-10 volunteers per cohort were randomized 6-8:2 to receive a single oral dose of either Compound 4 0.2 (N=6), 0.6 (N=6), 1.25 (N=8) or 1.8 mg (N=6) or placebo (N=2/dose group) under fasted conditions; following an ˜6-week washout period, the cohort subjects which had received 1.25 mg under fasted conditions in Cohort 4 were given the same 1.25 mg dose (N=7) under fed conditions (a standard meal consumed before dosing), in Cohort 6 (FIG. 1). Escalation of the Compound 4 dose was only permitted following a review of the safety and PK data from the previous cohort.
Following a single dose of Compound 4, intensive blood samples were collected over the first 24 hours, samples were then collected daily through Day 7, and weekly samples were collected through Day 35. Plasma concentrations of Compound 4 were evaluated using a validated liquid chromatography with tandem mass spectrometry method; the lower limit of quantification was 1 pg/mL. PK parameters were estimated using non-compartmental analysis (WinNonlin®, Certara, Princeton, NJ, USA). Descriptive statistics were used to summarize plasma concentrations and derived PK parameters of Compound 4. The impact of food on PK parameters was analyzed using geometric least square mean point estimates (mixed-effects model on log-transformed values with treatment as fixed effect and subject as a random effect).

[2] = 14-week rat toxicity study; type: in vivo; conditions: 5 mg/kg biw
From the text: (§1) Exposure increased more than dose-proportionally at low doses. Variability in exposure was high. • In vitro plasma protein binding was between 79.6% and 94.2% in animals and humans. Volume of distribution after intravenous dosing was high. […] Main metabolic pathways were oxygenation, hydrogenation, dehydrogenation, dealkylation, acetylation, glucuronidation, and/or glutathione conjugation. • In rats, >80% of drug-related material was found in feces, 11% to 20% in bile, and <4% in urine. […] There were no effects on embryofetal development up to 1 mg/kg/dose in rats and 30 mg/kg/dose in rabbits.

[3] = respiratory and central nervous system safety pharmacology in rats; conditions: rat, in vivo
From the text: as §1

human whole blood cells = experiment: cytokine release in vitro in whole blood cells; type: cell-based
From the text: as §1
LEC for Compound 4-induced cytokine release in vitro was determined to be 2 nM.

[4] = cardiovascular safety pharmacology in monkeys; type: in vivo; conditions: secondary to an increase in body temperature
From the text: as §1

[5] = Phase 1 multiple dose (Part 2): safety and tolerability in healthy adults; type: in vivo, human; conditions: 1.25 mg qw fasted
Procedure: All volunteers were followed up for 4 weeks and safety and tolerability were continuously assessed throughout the study. All adverse events (AEs) were recorded from the time of consent to the completion visit and were graded using the DAIDS toxicity grading scale. Volunteers also underwent physical examinations, electrocardiograms, vital sign checks and clinical laboratory parameters (chemistry, haematology, urinalysis).

[6] = 6-month toxicity study in rats; conditions: rat, in vivo
From the text: as §1

[7] = both sexes, human, plasma, oral, 0.2 mg, single dose 0.2 mg fasted, mean ± SD
[8] = both sexes, human, plasma, oral, 0.6 mg, single dose 0.6 mg fasted, mean ± SD
[9] = both sexes, human, plasma, oral, 1.25 mg, single dose 1.25 mg fasted, mean ± SD
[10] = both sexes, human, plasma, oral, 1.25 mg, single dose 1.25 mg fed, mean ± SD
[11] = both sexes, human, plasma, oral, 1.8 mg, single dose 1.8 mg fasted, mean ± SD

In the case of CCCCOc1nc(N)c2[nH]cc(Cc3ccc(CN4CCCC4)cc3)c2n1 [Compound 4], the “least square mean ratio point estimate of AUC48h, fed vs fasted” value ([1]; 1.25 mg, 90% CI 65.89-105.71) is reported as 83.45, the “Predose Level” value ([1]; before 1.25 mg fed dose, on average 41 days after 1.25 mg fasted dose, mean ± SD) is reported as 1.85 pg/mL and 1.85 ± 0.597 pg/mL and the Cmax [1, 7] is reported as 0.0344 ± 0.0179 ng/mL. It also gave an AUC(0-t) [1, 7] of 0.19 ± 0.0972 ng·h/mL, a Tmax ([1]; both sexes, human, plasma, oral, 0.2 mg, single dose 0.2 mg fasted, median (range), read-out: tmax) of 30 min and a Cmax [1, 8] of 0.109 ± 0.0281 ng/mL. For the same compound, the AUC(0-t) [1, 8] was 0.594 ± 0.21 ng·h/mL, the Tmax ([1]; both sexes, human, plasma, oral, 0.6 mg, single dose 0.6 mg fasted, median (range), read-out: tmax) was 30 min and the Cmax [1, 9] was 0.143 ± 0.0659 ng/mL. It also gave an AUC(0-t) [1, 9] of 0.815 ± 0.251 ng·h/mL, a Tmax ([1]; both sexes, human, plasma, oral, 1.25 mg, single dose 1.25 mg fasted, median (range), read-out: tmax) of 45 min and a Cmax [1, 10] of 0.152 ± 0.0764 ng/mL. The AUC(0-t) [1, 10] was 0.659 ± 0.194 ng·h/mL, the Tmax ([1]; both sexes, human, plasma, oral, 1.25 mg, single dose 1.25 mg fed, median (range), read-out: tmax) was 30 min and the Cmax [1, 11] was 0.309 ± 0.136 ng/mL. For the same compound, the AUC(0-t) [1, 11] was 1.37 ng·h/mL, the Tmax ([1]; both sexes, human, plasma, oral, 1.8 mg, single dose 1.8 mg fasted, median (range), read-out: tmax) was 30 min and the concentration at 41 days ([1]; both sexes, human, plasma, oral, before 1.25 mg fed dose, on average 41 days after 1.25 mg fasted dose, mean ± SD, read-out: Predose Level) was 0.00185 ng/mL. The CL renal ([1]; both sexes, human, plasma, oral, single dose 1.25 mg fasted, range 1.86-3.81, read-out: mean renal clearance (converted)) was 42.8 mL/min, the Tmax ([1]; both sexes, human, plasma, po, single oral doses 0.2 to 1.8 mg, read-out: tmax, range over doses) was 30 to 60 min and the half-life ([1]; both sexes, human, plasma, single oral doses 0.2 to 1.8 mg, read-out: median t1/2 term, range over doses) was 5.25 to 36.2 days. The t1/2term ([1]; single dose 0.2 mg fasted, median (range)) was 150 (126-212) h, the CL/F ([1]; single dose 0.2 mg fasted, n = 1) was 149 L/h and the t1/2term ([1]; single dose 0.6 mg fasted, median (range)) was 284 (104-479) h. For the same compound, the CL/F ([1]; single dose 0.6 mg fasted, n = 1) was 244 L/h, the “excreted as unchanged drug in urine within the first 24 hours” value ([1]; single dose 1.25 mg fasted) was “less than 0.2%” and the t1/2term ([1]; single dose 1.25 mg fasted, median (range)) was 448 (372-502) h. For the same compound, the CL/F ([1]; single dose 1.25 mg fasted, n = 3) was 254 L/h, the t1/2term ([1]; single dose 1.25 mg fed, median (range)) was 591 (448-868) h and the t1/2term ([1]; single dose 1.8 mg fasted, median (range)) was 194 (185-205) h. The “dose proportionality of exposure” value ([1]; single oral doses 0.2 to 1.8 mg fasted) was “increased in proportion with the dose; also recorded: dose-proportional pharmacokinetics”, the brain inflammation [2] was “Brain inflammation occurred” and the “effects on respiratory or central nervous system parameters” value [3] was “no relevant effects”. For the same compound, the “overall LEC for cytokine release in vitro” value (human whole blood cells) was 2 nM, the “potency on human versus monkey whole blood cells” value (human whole blood cells; most cytokines and chemokines tested) was “more potent on human whole blood cells compared to monkey whole blood cells” and the “heart rate and arterial blood pressure” value [4] was “transient increase in heart rate and arterial blood pressure”. The “ECG actual value: Heart rate (bpm) Low” value [5] was 0 n (%), the “ECG actual value: QTcB (ms) ]450; 480]” value [5] was 1 (16.7%) n (%) and the “ECG change from reference: QTcB (ms) >60” value [5] was 1 (16.7%) n (%). For the same compound, the “ECG change from reference: QTcB (ms) [30; 60]” value [5] was 1 (16.7%) n (%), the “ECG change from reference: QTcF (ms) [30; 60]” value [5] was 1 (16.7%) n (%) and the “lab toxicity: Amylase (U/L), upwards, Grade 1” value [5] was 2 (33.3%) n (%). The “lab toxicity: Amylase (U/L), upwards, Grade 2” value [5] was 0 n (%), the “lab toxicity: Aspartate aminotransferase (U/L), upwards, Grade 1” value [5] was 1 (16.7%) n (%) and the “lab toxicity: Aspartate aminotransferase (U/L), upwards, Grade 2” value [5] was 1 (16.7%) n (%). The “lab toxicity: Cholesterol (mmol/L), upwards, Grade 1” value [5] was 1 (16.7%) n (%), the “lab toxicity: Creatine kinase (U/L), upwards, Grade 3” value [5] was 1 (16.7%) n (%) and the “lab toxicity: Creatine kinase (U/L), upwards, Grade 4” value [5] was 1 (16.7%) n (%). The “lab toxicity: GFR from creatinine adjusted for BSA (mL/s/1.73m^2), downwards, Grade 2” value [5] was 1 (16.7%) n (%), the “lab toxicity: Glucose (mmol/L), upwards, Grade 1” value [5] was 4 (66.7%) n (%) and the “lab toxicity: Glucose (mmol/L), upwards, Grade 2” value [5] was 2 (33.3%) n (%). For the same compound, the “lab toxicity: Potassium (mmol/L), upwards, Grade 1” value [5] was 1 (16.7%) n (%), the “lab toxicity: Sodium (mmol/L), upwards, Grade 1” value [5] was 0 n (%) and the “lab toxicity: Triglycerides (mmol/L), upwards, Grade 1” value [5] was 1 (16.7%) n (%). For the same compound, the “lab toxicity: Triglycerides (mmol/L), upwards, Grade 2” value [5] was 2 (33.3%) n (%), the “subjects with at least one AE” value [5] was 6 (100%) n (%) and the “subjects with at least one AE for which any study drug or study was permanently stopped” value [5] was 1 (16.7%) n (%). For the same compound, the “subjects with at least one AE for which any study drug or study was temporarily stopped” value [5] was 0 n (%), the “subjects with at least one AE possibly related to any study drug” value [5] was 2 (33.3%) n (%) and the “subjects with at least one AE possibly, probably or very likely related to any study drug” value [5] was 3 (50.0%) n (%). For the same compound, the “subjects with at least one AE probably related to any study drug” value [5] was 1 (16.7%) n (%), the “subjects with at least one AE very likely related to any study drug” value [5] was 1 (16.7%) n (%) and the “subjects with at least one SAE” value [5] was 0 n (%). For the same compound, the “subjects with at least one fatal AE” value [5] was 0 n (%), the “subjects with at least one grade 1 AE” value [5] was 5 (83.3%) n (%) and the “subjects with at least one grade 2 AE” value [5] was 1 (16.7%) n (%). For the same compound, the “subjects with at least one grade 3 or 4 AE” value [5] was 0 n (%), the “subjects with high values for the monocytes/leukocytes ratio (non-graded)” value [5] was 4 (66.7%) n (%) and the “subjects with low erythrocyte count (non-graded)” value [5] was 3 (50.0%) n (%). The “treatment-related AE: Abdominal pain” value [5] was 0 n (%), the “treatment-related AE: Any AE” value [5] was 3 (50.0%) n (%) and the “treatment-related AE: Arthralgia” value [5] was 1 (16.7%) n (%). For the same compound, the “treatment-related AE: Dry skin” value [5] was 1 (16.7%) n (%), the “treatment-related AE: Dyspnoea” value [5] was 1 (16.7%) n (%) and the “treatment-related AE: Eye disorders” value [5] was 1 (16.7%) n (%). The “treatment-related AE: Gastrointestinal disorders” value [5] was 1 (16.7%) n (%), the “treatment-related AE: Headache” value [5] was 1 (16.7%) n (%) and the “treatment-related AE: Nausea” value [5] was 1 (16.7%) n (%). The “treatment-related AE: Nervous system disorders” value [5] was 1 (16.7%) n (%), the “treatment-related AE: Respiratory, thoracic and mediastinal disorders” value [5] was 1 (16.7%) n (%) and the “treatment-related AE: Retching” value [5] was 1 (16.7%) n (%). For the same compound, the “treatment-related AE: Retinal exudates” value [5] was 1 (16.7%) n (%), the “treatment-related AE: Skin and subcutaneous tissue disorders” value [5] was 1 (16.7%) n (%) and the “vital signs: Respiratory rate (brpm) Grade 1” value [5] was 4 (66.7%) n (%). For the same compound, the “vital signs: SaO2 (%) 95% to <98%” value [5] was 5 (83.3%) n (%), the “vital signs: Standing DBP (mmHg) Grade 1” value [5] was 2 (33.3%) n (%) and the “vital signs: Standing DBP (mmHg) Grade 2” value [5] was 2 (33.3%) n (%). For the same compound, the “vital signs: Standing DBP (mmHg) Grade 3” value [5] was 2 (33.3%) n (%), the “vital signs: Standing SBP (mmHg) Grade 1” value [5] was 3 (50.0%) n (%) and the “vital signs: Standing SBP (mmHg) Grade 2” value [5] was 0 n (%). For the same compound, the “vital signs: Standing SBP (mmHg) Low” value [5] was 2 (33.3%) n (%), the “vital signs: Standing pulse (bpm) High” value [5] was 3 (50.0%) n (%) and the “vital signs: Supine DBP (mmHg) Grade 1” value [5] was 2 (33.3%) n (%). For the same compound, the “vital signs: Supine SBP (mmHg) Grade 1” value [5] was 1 (16.7%) n (%), the “vital signs: Supine SBP (mmHg) Low” value [5] was 0 n (%) and the “vital signs: Supine pulse (bpm) Low” value [5] was 1 (16.7%) n (%). For the same compound, the “lab toxicity: LDL cholesterol (mmol/L, direct), upwards, Grade 1” value ([5]; n = 1 with data) was 1 (100.0%) n (%), the “lab toxicity: Pancreatic amylase (U/L), upwards, Grade 1” value ([5]; n = 2 with data) was 1 (50.0%) n (%) and the AUC(0-t) ([6]; 1.0 mg/kg qw or q2w, read-out: AUC24h at NOAEL) was 16.6 to 27.3 ng·h/mL. For the same compound, the Cmax ([6]; 1.0 mg/kg qw or q2w, read-out: Cmax at NOAEL) was 3.32 to 7.88 ng/mL and the NOAEL at 6 months ([6]; qw or q2w, 6 months) was 1 mg/kg.
